In the NIST ThermoML archive (doi:10.1016/j.jct.2018.10.006):
Numbers after ± are expanded uncertainties.

Conditions: for molar entropy / mass density: 101.33 kPa; for mass density: X-ray diffraction

O=P([O-])([O-])[O-].[Cs+].[Ni+2] [cesium nickel monophosphate]
molar entropy (5 K, Crystal 2, Small (less than 1 g) adiabatic calorimetry): 0.4664 ± 0.034 J/K/mol
molar entropy (6 K, Crystal 2, Small (less than 1 g) adiabatic calorimetry): 0.6618 ± 0.041 J/K/mol
molar entropy (7 K, Crystal 2, Small (less than 1 g) adiabatic calorimetry): 0.8896 ± 0.05 J/K/mol
molar entropy (8 K, Crystal 2, Small (less than 1 g) adiabatic calorimetry): 1.147 ± 0.058 J/K/mol
molar entropy (9 K, Crystal 2, Small (less than 1 g) adiabatic calorimetry): 1.438 ± 0.067 J/K/mol
molar entropy (10 K, Crystal 2, Small (less than 1 g) adiabatic calorimetry): 1.763 ± 0.083 J/K/mol
molar entropy (15 K, Crystal 2, Small (less than 1 g) adiabatic calorimetry): 3.941 ± 0.16 J/K/mol
molar entropy (20 K, Crystal 2, Small (less than 1 g) adiabatic calorimetry): 6.944 ± 0.14 J/K/mol
molar entropy (25 K, Crystal 2, Small (less than 1 g) adiabatic calorimetry): 10.43 ± 0.18 J/K/mol
molar entropy (30 K, Crystal 2, Small (less than 1 g) adiabatic calorimetry): 14.35 ± 0.25 J/K/mol
molar entropy (35 K, Crystal 2, Small (less than 1 g) adiabatic calorimetry): 18.52 ± 0.3 J/K/mol
molar entropy (40 K, Crystal 2, Small (less than 1 g) adiabatic calorimetry): 22.78 ± 0.36 J/K/mol
molar entropy (45 K, Crystal 2, Small (less than 1 g) adiabatic calorimetry): 27.1 ± 0.35 J/K/mol
molar entropy (50 K, Crystal 2, Small (less than 1 g) adiabatic calorimetry): 31.46 ± 0.39 J/K/mol
molar entropy (60 K, Crystal 2, Small (less than 1 g) adiabatic calorimetry): 40.28 ± 0.48 J/K/mol
molar entropy (70 K, Crystal 2, Small (less than 1 g) adiabatic calorimetry): 49.01 ± 0.57 J/K/mol
molar entropy (80 K, Crystal 2, Small (less than 1 g) adiabatic calorimetry): 57.49 ± 0.67 J/K/mol
molar entropy (90 K, Crystal 2, Small (less than 1 g) adiabatic calorimetry): 65.63 ± 0.76 J/K/mol
molar entropy (100 K, Crystal 2, Small (less than 1 g) adiabatic calorimetry): 73.47 ± 0.84 J/K/mol
molar entropy (110 K, Crystal 2, Small (less than 1 g) adiabatic calorimetry): 81.12 ± 0.91 J/K/mol
molar entropy (120 K, Crystal 2, Small (less than 1 g) adiabatic calorimetry): 88.55 ± 1 J/K/mol
molar entropy (130 K, Crystal 2, Small (less than 1 g) adiabatic calorimetry): 95.7 ± 1.1 J/K/mol
molar entropy (140 K, Crystal 2, Small (less than 1 g) adiabatic calorimetry): 102.6 ± 1.2 J/K/mol
molar entropy (150 K, Crystal 2, Small (less than 1 g) adiabatic calorimetry): 109.34 ± 1.2 J/K/mol
molar entropy (160 K, Crystal 2, Small (less than 1 g) adiabatic calorimetry): 115.9 ± 1.2 J/K/mol
molar entropy (170 K, Crystal 2, Small (less than 1 g) adiabatic calorimetry): 122.31 ± 1.3 J/K/mol
molar entropy (180 K, Crystal 2, Small (less than 1 g) adiabatic calorimetry): 128.54 ± 1.4 J/K/mol
molar entropy (190 K, Crystal 2, Small (less than 1 g) adiabatic calorimetry): 134.69 ± 1.4 J/K/mol
molar entropy (200 K, Crystal 2, Small (less than 1 g) adiabatic calorimetry): 140.68 ± 1.5 J/K/mol
molar entropy (210 K, Crystal 2, Small (less than 1 g) adiabatic calorimetry): 146.58 ± 1.6 J/K/mol
molar entropy (220 K, Crystal 2, Small (less than 1 g) adiabatic calorimetry): 152.32 ± 1.6 J/K/mol
molar entropy (230 K, Crystal 2, Small (less than 1 g) adiabatic calorimetry): 157.89 ± 1.7 J/K/mol
molar entropy (240 K, Crystal 2, Small (less than 1 g) adiabatic calorimetry): 163.38 ± 1.7 J/K/mol
molar entropy (250 K, Crystal 2, Small (less than 1 g) adiabatic calorimetry): 168.7 ± 1.7 J/K/mol
molar entropy (260 K, Crystal 2, Small (less than 1 g) adiabatic calorimetry): 173.94 ± 1.8 J/K/mol
molar entropy (270 K, Crystal 2, Small (less than 1 g) adiabatic calorimetry): 179.09 ± 1.9 J/K/mol
molar entropy (273.15 K, Crystal 2, Small (less than 1 g) adiabatic calorimetry): 180.67 ± 1.9 J/K/mol
molar entropy (280 K, Crystal 2, Small (less than 1 g) adiabatic calorimetry): 184.17 ± 1.9 J/K/mol
molar entropy (290 K, Crystal 2, Small (less than 1 g) adiabatic calorimetry): 189.15 ± 2 J/K/mol
mass density (298 K, Crystal 2): 4218.3 ± 10 kg/m3
molar entropy (298.15 K, Crystal 2, Small (less than 1 g) adiabatic calorimetry): 193.23 ± 2 J/K/mol
molar entropy (300 K, Crystal 2, Small (less than 1 g) adiabatic calorimetry): 194.14 ± 2 J/K/mol
molar entropy (310 K, Crystal 2, Small (less than 1 g) adiabatic calorimetry): 199.13 ± 2.1 J/K/mol
molar entropy (320 K, Crystal 2, Small (less than 1 g) adiabatic calorimetry): 204.04 ± 2.2 J/K/mol
molar entropy (330 K, Crystal 2, Small (less than 1 g) adiabatic calorimetry): 208.86 ± 2.2 J/K/mol
molar entropy (340 K, Crystal 2, Small (less than 1 g) adiabatic calorimetry): 213.68 ± 9.6 J/K/mol
molar entropy (350 K, Crystal 2, Small (less than 1 g) adiabatic calorimetry): 218.42 ± 9.9 J/K/mol
molar entropy (360 K, Crystal 2, Small (less than 1 g) adiabatic calorimetry): 223.08 ± 10 J/K/mol
molar entropy (370 K, Crystal 2, Small (less than 1 g) adiabatic calorimetry): 227.82 ± 10 J/K/mol
molar entropy (380 K, Crystal 2, Small (less than 1 g) adiabatic calorimetry): 232.47 ± 11 J/K/mol
molar entropy (382.8 K, Crystal 1, DSC): 237.46 ± 17 J/K/mol
molar entropy (382.8 K, Crystal 2, Small (less than 1 g) adiabatic calorimetry): 233.72 ± 11 J/K/mol
molar entropy (390 K, Crystal 1, DSC): 240.7 ± 17 J/K/mol
molar entropy (400 K, Crystal 1, DSC): 245.19 ± 17 J/K/mol
molar entropy (410 K, Crystal 1, DSC): 249.52 ± 17 J/K/mol
molar entropy (420 K, Crystal 1, DSC): 253.76 ± 18 J/K/mol
molar entropy (430 K, Crystal 1, DSC): 257.83 ± 18 J/K/mol
molar entropy (440 K, Crystal 1, DSC): 261.82 ± 18 J/K/mol
molar entropy (450 K, Crystal 1, DSC): 265.73 ± 18 J/K/mol
molar entropy (460 K, Crystal 1, DSC): 269.64 ± 19 J/K/mol
molar entropy (470 K, Crystal 1, DSC): 273.38 ± 19 J/K/mol
mass density (473 K, Crystal 1): 4124 ± 22 kg/m3
molar entropy (480 K, Crystal 1, DSC): 277.04 ± 19 J/K/mol
molar entropy (490 K, Crystal 1, DSC): 280.7 ± 20 J/K/mol
molar entropy (500 K, Crystal 1, DSC): 284.27 ± 20 J/K/mol
molar entropy (510 K, Crystal 1, DSC): 287.76 ± 20 J/K/mol
molar entropy (520 K, Crystal 1, DSC): 291.17 ± 20 J/K/mol
molar entropy (530 K, Crystal 1, DSC): 294.58 ± 20 J/K/mol
molar entropy (540 K, Crystal 1, DSC): 297.91 ± 21 J/K/mol
molar entropy (550 K, Crystal 1, DSC): 301.23 ± 21 J/K/mol
molar entropy (560 K, Crystal 1, DSC): 304.48 ± 21 J/K/mol
molar entropy (570 K, Crystal 1, DSC): 307.64 ± 21 J/K/mol
mass density (573 K, Crystal 1): 4090 ± 80 kg/m3
molar entropy (580 K, Crystal 1, DSC): 310.79 ± 22 J/K/mol
molar entropy (590 K, Crystal 1, DSC): 313.87 ± 22 J/K/mol
molar entropy (600 K, Crystal 1, DSC): 316.86 ± 22 J/K/mol
molar entropy (610 K, Crystal 1, DSC): 319.86 ± 22 J/K/mol
molar entropy (620 K, Crystal 1, DSC): 322.85 ± 22 J/K/mol
molar entropy (630 K, Crystal 1, DSC): 325.76 ± 23 J/K/mol
molar entropy (640 K, Crystal 1, DSC): 328.67 ± 23 J/K/mol
molar entropy (650 K, Crystal 1, DSC): 331.58 ± 23 J/K/mol
mass density (673 K, Crystal 1): 4080 ± 80 kg/m3
mass density (773 K, Crystal 1): 4040 ± 18 kg/m3
mass density (873 K, Crystal 1): 4030 ± 160 kg/m3
mass density (973 K, Crystal 1): 4000 ± 80 kg/m3
mass density (1073 K, Crystal 1): 3980 ± 60 kg/m3
Triple point temperature (Crystal 2, DSC): 382.8 ± 0.8 K
